Legend:
[1] = system: gingival fibroblasts which extremely decompose collagen gel, derived from a patient with periodontitis; experiment: three-dimensional collagen gel culture system, collagen degradation (Experimental Example 1); type: cell-based, human; conditions: day 5 of suspension culture; compared to control; HGF 50 ng/mL; HGF-neutralizing antibody 20 μg/mL
Description: First, a three-dimensional collagen gel culture system of gingival fibroblasts previously developed by the present inventors will be described with reference to FIGS. 1(a) to 1(d). In this culture system, it is possible to evaluate the influence of a test substance on degradation of collagen in periodontal tissues in vitro and to obtain results close to in vivo.
First, as shown in FIG. 1(a), gingival fibroblasts derived from a patient with periodontitis and a test substance are added into collagen gel, and the mixture is poured into a petri dish. Subsequently, the mixture is incubated at 37° C. for 30 minutes and the collagen gel is hardened. Subsequently, gingival epithelial cells derived from the patient with periodontitis are seeded on the hardened collagen gel and incubated overnight.
Subsequently, as shown in FIG. 1(b), the collagen gel is peeled off from the petri dish to make the collagen gel float. At this time, the test substance is also added into a medium in which the collagen gel floats. Subsequently, the suspension culture is continued for 5 days. Meanwhile, the collagen gel is degraded and contracts due to various factors produced by an interaction between the gingival fibroblasts and the gingival epithelial cells. […]
Subsequently, as shown in FIG. 1(c), the amount of residual collagen is quantitatively determined on day 5 of suspension culture. […]

[2] = system: normal gingival fibroblasts; experiment: three-dimensional collagen gel culture system with normal gingival fibroblasts (Experimental Example 1); type: cell-based, human; conditions: day 5 of suspension culture, HGF 25 and 50 ng/mL, HGF-neutralizing antibody 20 μg/mL
From the text: In addition, gingival fibroblasts with a low resolution of collagen gel (hereinafter, sometimes referred to as “normal gingival fibroblasts”) were used as controls. Gingival fibroblasts with which the contraction of collagen gel having a diameter of 35 mm remained to a diameter of about 10 mm were used as normal gingival fibroblasts.
In addition, the same collagen gel as the above-described collagen gel was produced for comparison except that the above-described normal gingival fibroblasts were used instead of the gingival fibroblasts which extremely decompose collagen gel.
Subsequently, each prepared collagen gel piece was incubated at 37° C. After 24 hours, each collagen gel piece was peeled off from a plate and was suspended (on day 1 of culture). Each test substance (HGF-neutralizing antibody and HGF) having the same concentration as that described above was added to a medium. Subsequently, suspension culture of collagen gel was continued at 37° C., and collagen gel was observed on day 5 after the start of the suspension culture.
FIGS. 2(a) to 2(h) are photographs of each collagen gel piece on day 5 after the start of the suspension culture. Each mass floating in each well in FIGS. 2(a) to 2(h) is collagen gel. FIGS. 2(a) to 2(d) show results of collagen gel containing gingival fibroblasts which extremely decompose collagen gel. […]

[3] = system: gingival fibroblasts extremely decomposing collagen gel (PAF1, PAF2); experiment: weight of collagen gel after three-dimensional culture (Experimental Example 3); type: cell-based, human; conditions: HGF 50 ng/mL, HGF-neutralizing antibody 20 μg/mL; for weight of collagen gel: day 5 of suspension culture
Description: Cell matrix type I-A (Nitta Gelatin Inc.), 5×DMEM, a buffer solution for reconstitution (Nitta gelatin) were mixed with each other to prepare a collagen mixed solution. An HGF-neutralizing antibody (model “AB-294-NA”, R&D) was added to this collagen mixed solution so that the final concentration became 20 μg/mL. In addition, a sample containing no test substance (control) and a sample to which HGF (model “100-39”, PeproTech, Inc.) was added so that the final concentrations became 50 ng/mL were prepared for comparison.
Subsequently, the same gingival fibroblasts, which extremely decompose collagen gel, as in Experimental Example 1 were mixed with these collagen mixed solutions and seeded in a 6-well plate so that the cell density became 2.5×10^5 cells/well. Subsequently, the mixture was incubated at 37° C. for 30 minutes and the collagen gel was hardened. Two kinds of cells (hereinafter, referred to as “PAF1” and “PAF2”) were used as gingival fibroblasts extremely decomposing collagen gel.
Subsequently, the same gingival epithelial cells as in Experimental Example 1 were dispersed by trypsin treatment, and were then seeded on the above-described collagen gel at 2×10^5 cells/well to form a single layer of the epithelial cells.
Subsequently, each prepared collagen gel was incubated at 37° C. After 24 hours, each collagen gel piece was peeled off from a plate and was suspended (on day 1 of culture). HGF-neutralizing antibodies having the same concentration as that described above were added to a medium of a test group. Subsequently, suspension culture of collagen gel was continued at 37° C.
Collagen gel was collected on day 5 after the start of the suspension culture, and the weight thereof was measured. FIGS. 5(a) and 5(b) are photographs of collected collagen gel. […] In FIGS. 5(a) and 5(b), the “control” indicates control collagen gel, “HGF” indicates collagen gel to which HGF is added, and the “HGF-neutralizing antibody” indicates collagen gel to which an HGF-neutralizing antibody is added.

[4] = system: monkey gingival fibroblasts which extremely decompose collagen gel; experiment: three-dimensional collagen gel culture system with monkey gingival fibroblasts (Experimental Example 4); type: cell-based, Macaca fascicularis; conditions: HGF 50 ng/mL, HGF-neutralizing antibody 20 μg/mL
From the text: Before clinical application of the therapeutic agent for periodontitis of the present invention to humans, it is necessary to conduct experiments using monkeys. An effect of an HGF-neutralizing antibody on degradation of collagen using gingival fibroblasts derived from a monkey naturally occurred periodontitis was examined using the same three-dimensional collagen gel culture system as in Experimental Example 1. Since it is difficult to culture gingival epithelial cells of monkeys, human gingival epithelial cells were used as gingival epithelial cells. Tissue of a gingiva piece derived from an euthanasia individual of a monkey (Macaca fascicularis, raised in Tsukuba Primate Research Center) naturally occurred periodontitis was cut, and then, the tissue pieces were allowed to stand on the bottom of a cell culture plate. Subsequently, outgrown cells from the tissue pieces were subcultured as a first generation to obtain monkey gingival fibroblasts. The obtained gingival fibroblasts were once cultured in the above-described three-dimensional collagen gel culture system to observe collagen resolution, and gingival fibroblasts which extremely decompose collagen gel (that is, with which collagen gel were degraded and contracted). […]

## HGF: HGF (model “100-39”, PeproTech, Inc.), hepatocyte growth factor added for comparison
[1]
  degradation of collagen (observation of collagen gel): clearly accelerated
[2]
  difference in decomposition of collagen: no difference
[3]; PAF1, control 0.013 g
  weight of collagen gel: 0.011 g
[3]; PAF1 and PAF2, compared to control collagen gel
  degradation of collagen gel: remarkably accelerated
[3]; PAF2, control 0.034 g
  weight of collagen gel: 0.028 g
[4]; monkey gingival fibroblasts with human gingival epithelial cells (SAF1, SAF2), day 5 of suspension culture, compared to controls
  degradation of collagen (observation of collagen gel): promoted
[4]; monkey gingival fibroblasts, SAF1
  vacuoles around cells (hematoxylin-eosin staining of thin section of collagen gel): a vacuole is formed around the cell
